Data on twelve molecules can be found in article PMC10096391, “Discovery of N,4-Di(1H-pyrazol-4-yl)pyrimidin-2-amine-Derived CDK2 Inhibitors as Potential Anticancer Agents: Design, Synthesis, and Evaluation” (Molecules, 2023).

One test deals with CDK1/cyclin B (CDK1B) (Homo sapiens, UniProt P06493). Put plainly: ADP-Glo kinase assay, CDK1/cyclin B. It is filed as biochemical. Particulars: for Ki: apparent Ki from IC50, ADP-Glo; for inhibition at 1 µM: read-out: % Enzymatic Inhibition at 1 µM CDK1B. The protocol: (§1) The luminescent ADP-Glo™ assay, which measures the amount of ADP formed in a kinase reaction as described previously, was used to determine the kinase inhibition profile of the compounds. […] Ki values were calculated from their corresponding IC50 values (the concentrations of inhibitors that inhibit the kinase activity by 50%) and the Michaelis–Menten constant (Km) of ATP for each kinase using the Cheng–Prusoff equation as previously stated. In brief, 1 μL of each concentration of the test compounds was added to the respective wells, and to it were added 1 μL of the kinases and their respective substrates, diluted to the desired concentration in kinase reaction buffer ([…] tris base pH 7.5, 20 mM MgCl2, 0.4 µM dithiothreitol, and 0.1 mg/mL bovine serum albumin), and the pH was adjusted by adding 1 μL of a two-fold diluted kinase reaction buffer. To initiate the kinase activity, 1 μL of ATP solution (the concentration varies depending on the type of kinase under investigation) was added to each well, and the mixture was incubated at room temperature (20 to 22 °C) for 30–60 min depending on the kinase being tested. The reaction was then halted, 5 μL of the ADP-Glo reagent was added to each well (removing any unreacted ATP), and it was incubated at room temperature for 40 min. Then, to each well, 10 μL of the kinase detection reagent containing luciferin was added, which was incubated once more at room temperature in the dark for 30 min and the luminescence was measured by an EnVision® multi-label plate reader with an integration time of 1.5 s per well. Positive controls (the wells without the inhibitor) and negative or blank controls (the wells without the inhibitor and the enzyme, but with 1 × kinase reaction buffer) were also determined in 2.5% DMSO.
Chain of CDK1/cyclin B (CDK1B) (P06493 whole entry): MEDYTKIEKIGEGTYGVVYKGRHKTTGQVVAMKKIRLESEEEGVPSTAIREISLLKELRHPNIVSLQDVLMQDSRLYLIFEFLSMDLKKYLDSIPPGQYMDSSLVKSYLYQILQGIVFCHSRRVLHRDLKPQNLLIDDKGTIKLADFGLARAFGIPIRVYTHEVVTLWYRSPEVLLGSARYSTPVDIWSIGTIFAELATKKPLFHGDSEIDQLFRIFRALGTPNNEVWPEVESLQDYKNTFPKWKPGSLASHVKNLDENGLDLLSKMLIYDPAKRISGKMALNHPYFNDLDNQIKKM
Chain of CDK1/cyclin B (CDK1B) (P14635 whole entry partner): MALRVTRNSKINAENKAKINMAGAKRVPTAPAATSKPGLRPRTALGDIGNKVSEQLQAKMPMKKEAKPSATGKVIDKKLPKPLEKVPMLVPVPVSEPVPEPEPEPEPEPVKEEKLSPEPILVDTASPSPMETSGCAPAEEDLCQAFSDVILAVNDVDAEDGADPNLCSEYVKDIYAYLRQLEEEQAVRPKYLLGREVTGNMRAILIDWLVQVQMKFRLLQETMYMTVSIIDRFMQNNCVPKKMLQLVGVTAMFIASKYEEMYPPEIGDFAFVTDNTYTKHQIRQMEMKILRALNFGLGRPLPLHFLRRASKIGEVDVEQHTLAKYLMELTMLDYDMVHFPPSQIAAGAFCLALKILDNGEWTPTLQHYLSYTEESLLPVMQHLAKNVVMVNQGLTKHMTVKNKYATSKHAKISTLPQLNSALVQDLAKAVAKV
(§2) The percentage of kinase inhibition was determined using the following equation: % Residual kinase activity=Luminescence in the presence of inhibitor−Luminescence of blank control/Luminescence in the absence of inhibitor−Luminescence of blank control×100%%kinase inhbition=100%−%Residual kinase activity
(§3) Km is defined as the concentration of ATP or the substrate required to produce 50% of the maximal reaction rate in the kinase reaction. Therefore, since we used the concentration of ATP and the substrate at their Km values, Ki simply equals IC50/2 assuming these inhibitors are ATP-competitive based on the Cheng–Prusoff equation: Ki = IC50/(1 + ([ATP]/Km(ATP))) where [ATP] is the ATP concentration used for the IC50 determination and Km(ATP) for each kinase was determined experimentally.
A general note: ADP-Glo first removes unused ATP, then detects ADP through luciferase.

In another test the target is CDK2/cyclin E (CDK2E) (Homo sapiens, UniProt P24941). Put plainly: ADP-Glo kinase assay, CDK2/cyclin E. In kind it is biochemical. The conditions noted are these: for Ki: apparent Ki from IC50, ADP-Glo; for inhibition at 1 µM: read-out: % Enzymatic Inhibition at 1 µM CDK2E. The procedure: as §1, §2, §3
The next test deals with CDK5/p25 (CDK5p25) (Homo sapiens, UniProt Q00535). Put plainly: ADP-Glo kinase assay, CDK5/p25. It is filed as biochemical. The conditions noted are these: for Ki: apparent Ki from IC50, ADP-Glo; for inhibition at 1 µM: read-out: % Enzymatic Inhibition at 1 µM CDK5p25. The procedure: as §1, with “Then, to each well, 10 μL of the kinase detection reagent containing luciferin was added, which was incubated once more at room temperature in the dark for 30 min and the luminescence was measured by an EnVision® multi-label plate reader with an integration time of 1.5 s per well.” left out
Chain of CDK5/p25 (CDK5p25) (Q00535 whole entry): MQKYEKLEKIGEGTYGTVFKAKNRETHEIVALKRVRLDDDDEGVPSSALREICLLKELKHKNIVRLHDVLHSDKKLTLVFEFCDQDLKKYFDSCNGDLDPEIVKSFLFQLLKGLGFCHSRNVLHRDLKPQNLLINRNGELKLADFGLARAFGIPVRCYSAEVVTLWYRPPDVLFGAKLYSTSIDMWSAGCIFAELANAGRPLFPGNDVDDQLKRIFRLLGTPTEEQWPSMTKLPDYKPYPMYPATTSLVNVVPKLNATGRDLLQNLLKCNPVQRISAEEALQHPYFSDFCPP
Chain of CDK5/p25 (CDK5p25) (Q15078 99-307 partner limits assumed): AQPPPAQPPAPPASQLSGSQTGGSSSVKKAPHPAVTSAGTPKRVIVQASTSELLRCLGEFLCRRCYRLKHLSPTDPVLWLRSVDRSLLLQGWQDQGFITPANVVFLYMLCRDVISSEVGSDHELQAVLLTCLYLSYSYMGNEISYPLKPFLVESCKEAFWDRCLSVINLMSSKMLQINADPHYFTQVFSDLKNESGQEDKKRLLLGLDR
as §2, §3

Another test addresses CDK9/cyclin T1 (CDK9T1) (Homo sapiens, UniProt P50750). Put plainly: ADP-Glo kinase assay, CDK9/cyclin T1. It is filed as biochemical. The conditions noted are these: for Ki: apparent Ki from IC50, ADP-Glo; for inhibition at 1 µM: read-out: % Enzymatic Inhibition at 1 µM CDK9T1. The procedure:
as §1, with “Then, to each well, 10 μL of the kinase detection reagent containing luciferin was added, which was incubated once more at room temperature in the dark for 30 min and the luminescence was measured by an EnVision® multi-label plate reader with an integration time of 1.5 s per well.” left out
as §2, §3

The test system of test [1] is A2780 ovarian cancer cells. Put plainly: 72 h MTT antiproliferative assay, A2780. In kind it is cell-based. Particulars: for GI50 / inhibition at 1 µM: Homo sapiens, A2780, 72 h MTT; for inhibition at 1 µM: read-out: % Growth Inhibition (GI) at 1 µM A2780. The source says: Cancer cell lines derived from leukemia (MV4-11 and U937), breast (MCF7 (Rb-positive) and MDA-MB-231(Rb-negative)), and ovarian (A2780, OVCAR5, OAW28, OV90, Cov318, and Cov504) cancers, and glioblastoma (U87, T98G and U251) were acquired from the cell bank at Drug Discovery and Development, University of South Australia, and cultured according to the American Type Culture Collection (ATCC) recommendation in Roswell Park Memorial Institute (RPMI)-1640, Dulbecco’s Modified Eagle’s Medium (DMEM), or Minimum Essential Media (MEM), with 10% fetal bovine serum (Sigma-Aldrich, Castle Hill, NSW, Australia) within a humidified incubator at 37 °C in the presence of 5% CO2.
The MTT (Life Technologies, Mulgrave, VIC, Australia) and resazurin (Sigma-Aldrich) assays were used to determine the antiproliferative activities of the compounds initially at 1 µM against the cancer cell lines stated above.

Chain of CDK9/cyclin T1 (CDK9T1) (P50750 whole entry): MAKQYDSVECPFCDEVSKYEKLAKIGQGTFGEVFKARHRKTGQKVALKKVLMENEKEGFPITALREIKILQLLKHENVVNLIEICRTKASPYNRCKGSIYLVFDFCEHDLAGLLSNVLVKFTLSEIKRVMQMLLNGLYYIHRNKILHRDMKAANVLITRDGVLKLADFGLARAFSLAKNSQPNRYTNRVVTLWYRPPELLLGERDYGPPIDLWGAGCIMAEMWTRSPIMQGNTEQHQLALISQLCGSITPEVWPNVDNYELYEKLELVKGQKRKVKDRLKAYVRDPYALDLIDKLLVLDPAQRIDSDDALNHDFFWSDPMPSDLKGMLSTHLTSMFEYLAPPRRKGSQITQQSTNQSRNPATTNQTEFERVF
Chain of CDK9/cyclin T1 (CDK9T1) (O60563 whole entry partner): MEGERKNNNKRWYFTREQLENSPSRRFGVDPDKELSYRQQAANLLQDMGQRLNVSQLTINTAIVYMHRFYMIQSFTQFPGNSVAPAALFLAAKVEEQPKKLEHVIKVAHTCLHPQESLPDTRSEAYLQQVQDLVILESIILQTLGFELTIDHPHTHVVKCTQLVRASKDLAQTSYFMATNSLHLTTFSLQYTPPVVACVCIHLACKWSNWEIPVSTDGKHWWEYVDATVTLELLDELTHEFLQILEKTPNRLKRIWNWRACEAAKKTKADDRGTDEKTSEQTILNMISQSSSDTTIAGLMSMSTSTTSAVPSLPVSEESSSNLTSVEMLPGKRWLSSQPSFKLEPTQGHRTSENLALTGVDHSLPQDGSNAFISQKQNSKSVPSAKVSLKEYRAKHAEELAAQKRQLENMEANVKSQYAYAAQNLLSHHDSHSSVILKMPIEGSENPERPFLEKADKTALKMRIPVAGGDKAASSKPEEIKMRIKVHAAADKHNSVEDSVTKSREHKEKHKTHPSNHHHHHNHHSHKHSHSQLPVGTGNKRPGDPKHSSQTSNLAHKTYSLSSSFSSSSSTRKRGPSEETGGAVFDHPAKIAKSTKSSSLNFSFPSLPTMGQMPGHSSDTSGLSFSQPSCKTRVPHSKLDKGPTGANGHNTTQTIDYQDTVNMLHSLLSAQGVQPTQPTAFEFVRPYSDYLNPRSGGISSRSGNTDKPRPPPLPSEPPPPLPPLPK

For the molecule `Cn1cc(-c2nc(Nc3cn[nH]c3)ncc2F)cn1` [Compound 14, 5-Fluoro-4-(1-methyl-1H-pyrazol-4-yl)-N-(1H-pyrazol-4-yl)pyrimidin-2-amine], the Ki worked out at 0.018 µM at CDK1/cyclin B (CDK1B), 0.007 µM at CDK2/cyclin E (CDK2E), 0.003 µM on CDK5/p25 (CDK5p25) and 0.016 µM at CDK9/cyclin T1 (CDK9T1). In test [1], this molecule showed a GI50 of 0.498 µM. Besides, the “fold lower antiproliferative activity against A2780 compared to 1” value in test [1] (versus 1) is on record as “about 28 fold”.

Turning to `Cn1cc(Nc2ncc(F)c(-c3cnn(C)c3)n2)cn1` [Compound 16, 5-Fluoro-N,4-bis(1-methyl-1H-pyrazol-4-yl)pyrimidin-2-amine], the Ki came to 0.092 µM at CDK1/cyclin B (CDK1B), 0.023 µM at CDK2/cyclin E (CDK2E), 0.018 µM at CDK5/p25 (CDK5p25) and 0.098 µM at CDK9/cyclin T1 (CDK9T1). Also, the inhibition at 1 µM at CDK2/cyclin E (CDK2E) came to 97%; in test [1], 9%.

Take `Cn1cc(Nc2ncc(Cl)c(-c3cnn(C)c3)n2)cn1` [Compound 17, 5-Chloro-N,4-bis(1-methyl-1H-pyrazol-4-yl)pyrimidin-2-amine]: the Ki at CDK1/cyclin B (CDK1B) came to 0.034 µM. Further, the Ki on CDK2/cyclin E (CDK2E) came out at 0.011 µM. In test [1], the inhibition at 1 µM is 87% and halving of growth (GI50) required 1.02 µM.

In the case of `Cn1cc(-c2nc(Nc3cnn(CC(N)=O)c3)ncc2F)cn1` [Compound 18, 2-(4-((5-Fluoro-4-(1-methyl-1H-pyrazol-4-yl)pyrimidin-2-yl)amino)-1H-pyrazol-1-yl)acetamide], the Ki was 0.112 µM on CDK1/cyclin B (CDK1B), 0.085 µM at CDK2/cyclin E (CDK2E) and 0.193 µM at CDK5/p25 (CDK5p25). Moreover, the values for the inhibition at 1 µM (on CDK9/cyclin T1 (CDK9T1); in test [1]) were 68% and 0%, respectively.

In the case of `Cn1cc(-c2nc(Nc3cnn(CC(N)=O)c3)ncc2Cl)cn1` [Compound 19, 2-(4-((5-Chloro-4-(1-methyl-1H-pyrazol-4-yl)pyrimidin-2-yl)amino)-1H-pyrazol-1-yl)acetamide], the Ki on CDK1/cyclin B (CDK1B) turned out to be 0.018 µM; on CDK2/cyclin E (CDK2E) it was 0.025 µM; at CDK5/p25 (CDK5p25), 0.052 µM; on CDK9/cyclin T1 (CDK9T1) it was 0.101 µM. The inhibition at 1 µM in test [1] was found to be 44%.

Take `Cc1nn(C)cc1-c1nc(Nc2cnn(C)c2)ncc1F` [Compound 20, 4-(1,3-Dimethyl-1H-pyrazol-4-yl)-5-fluoro-N-(1-methyl-1H-pyrazol-4-yl)pyrimidin-2-amine]: the Ki amounted to 0.164 µM at CDK1/cyclin B (CDK1B), 0.026 µM on CDK2/cyclin E (CDK2E), 0.018 µM at CDK5/p25 (CDK5p25) and 0.343 µM on CDK9/cyclin T1 (CDK9T1). In addition, the inhibition at 1 µM in test [1] amounted to 7%.

With `Cc1nn(C)cc1-c1nc(Nc2cnn(C)c2)ncc1Cl` [Compound 21, 5-Chloro-4-(1,3-dimethyl-1H-pyrazol-4-yl)-N-(1-methyl-1H-pyrazol-4-yl)pyrimidin-2-amine], the Ki amounted to 0.225 µM at CDK1/cyclin B (CDK1B), 0.023 µM on CDK2/cyclin E (CDK2E), 0.035 µM at CDK5/p25 (CDK5p25) and 0.062 µM on CDK9/cyclin T1 (CDK9T1). Further, in test [1], the inhibition at 1 µM was 8%.

With `Cn1cc(-c2nc(Nc3ccn[nH]3)ncc2Cl)cn1` [Compound 23, 5-Chloro-4-(1-methyl-1H-pyrazol-4-yl)-N-(1H-pyrazol-5-yl)pyrimidin-2-amine], the inhibition at 1 µM at CDK1/cyclin B (CDK1B) amounted to 9%; on CDK9/cyclin T1 (CDK9T1) it was 40%. Besides, the results for the Ki on CDK2/cyclin E (CDK2E) and on CDK5/p25 (CDK5p25) were 0.09 µM and 0.04 µM, respectively. For the same molecule, on CDK2/cyclin E (CDK2E) (versus 15, Ki ratio), the “fold reduced CDK2 inhibition compared to 15” value turned out to be 18 fold. This molecule also registered a 50% growth inhibitory concentration (GI50) in test [1] of 7.35 µM. Further, the “fold less potent antiproliferative activity against A2780 than 15” value in test [1] (versus 15, GI50 ratio) was 47 fold.

Consider `Cn1cc(-c2nc(Nc3nccs3)ncc2Cl)cn1` [Compound 25, N-(5-Chloro-4-(1-methyl-1H-pyrazol-4-yl)pyrimidin-2-yl)thiazol-2-amine], for which the inhibition at 1 µM on CDK1/cyclin B (CDK1B) turned out to be 31%; at CDK2/cyclin E (CDK2E) it was 46%; on CDK9/cyclin T1 (CDK9T1) it was 31%; in test [1], 9%. Also, the Ki on CDK5/p25 (CDK5p25) was found to be 0.177 µM.

For `Cn1cc(Nc2ncc(F)c(-c3cnn(CCN4CCOCC4)c3)n2)cn1` [Compound 31, 5-Fluoro-N-(1-methyl-1H-pyrazol-4-yl)-4-(1-(2-morpholinoethyl)-1H-pyrazol-4-yl)pyrimidin-2-amine], the inhibition at 1 µM is 26% on CDK1/cyclin B (CDK1B); 48% at CDK2/cyclin E (CDK2E); 43% on CDK5/p25 (CDK5p25); 24% on CDK9/cyclin T1 (CDK9T1); 0% in test [1].

Turning to `Cn1cc(Nc2ncc(Cl)c(-c3cnn(CCN4CCOCC4)c3)n2)cn1` [Compound 32, 5-Chloro-N-(1-methyl-1H-pyrazol-4-yl)-4-(1-(2-morpholinoethyl)-1H-pyrazol-4-yl)pyrimidin-2-amine], the inhibition at 1 µM came to 36% on CDK1/cyclin B (CDK1B), 21% on CDK9/cyclin T1 (CDK9T1) and 3% in test [1]. In addition, the Ki on CDK2/cyclin E (CDK2E) was 0.252 µM; at CDK5/p25 (CDK5p25), 0.126 µM.

Take `Cn1cc(Nc2ncc(F)c(-c3ccnn3C)n2)cn1` [Compound 35, 5-Fluoro-N-(1-methyl-1H-pyrazol-4-yl)-4-(1-methyl-1H-pyrazol-5-yl)pyrimidin-2-amine]: the inhibition at 1 µM at CDK1/cyclin B (CDK1B) was 49%; at CDK2/cyclin E (CDK2E), 64%; at CDK5/p25 (CDK5p25), 58%; on CDK9/cyclin T1 (CDK9T1), 45%; in test [1], 19%.

By GI50 is commonly meant the concentration that inhibits growth by half. In general, inhibition refers to the percentage by which the read-out fell short of the control.
